According to patent US8338490B2, “Composition for repelling and deterring vermin” (Novartis AG, priority 2006, dated 2012):

Experiments:
[1] = system: Amblyomma hebraeum or variegatum (nymphs); experiment: Arena test in vitro against Amblyomma hebraeum or variegatum (nymphs); settings: ca. 25 to 50 per well, video evaluation
Experimental: This method is carried out in titre plates having 6 wells with a cross-section of 5 cm each, using a computer-supported video system. Each well of the titre plate is lined with a circular filter paper or another suitable carrier material. The substance of formula I to be tested is dissolved in methanol, acetonitrile or another suitable solvent, with ultrasound treatment and heating being employed for poorly-soluble substances. In an amount of 1 to 100 μg/cm^2, the dissolved test substance is placed in the centre of the filter paper on a quadrant or circular area of ca. 2.4 cm^2 radius. 4 of the 6 wells are filled with different test substances or with the same test substance in different dilutions (e.g. 1, 3.2, 5, 10 and 20 μg/cm^2). The 5th well is treated with DEET (N,N-diethyl-m-toluamide) as standard substance. The 6th well is filled with the pure solvent and serves as a control. 60 to 100 larvae or 25 to 50 nymphs or 10 to 25 adults of the parasite to be tested, e.g. ticks, are added to each filter paper, and the system is covered with a pane of glass and positioned under a video camera. At intervals of 5 seconds, the video camera takes individual pictures of all 6 wells. For a qualitative evaluation, these images are observed in a time-lapse as a continuous film, optically following the movements of the parasites on the filter paper and comparing them with the movements in the control well no. 6 or with the standard in the 5th well. A qualitative observation is thus made as to whether the test parasites move evenly over the whole surface of the filter paper and ignore the test substance, or whether and over what period they avoid the treated zone, and what influence the dilution of the test substance has on the behaviour of the test parasites. In this way, neutral and deterring substances are determined. At the same time, the duration of activity of the test substance is determined and compared with that of the standard. By plotting all the images for each individual well over one another, different areas of density are obtained. This represents the frequency at which the parasites visit certain places. This frequency is evaluated statistically and thus quantitatively by the Willcoxon method in a comparison with the control and with the standard. […] Arena Test In Vitro Against Amblyomma hebraeum or variegatum (nymphs) The test is carried out as described above, with ca. 25 to 50 nymphs being added per well. 10 mg of dissolved test substance is applied to an area of 2.4 cm^2 radius. […] Particularly marked long-term activity is shown for example by using the compounds Nos. 1.001, 2.001, 3.001, 4.001, 5.001, 5.184, 5.185, and 5.186 even up to a dilution of 3.2 μg/cm^2.

[2] = system: Boophilus microplus Biarra (larvae); experiment: Arena test in vitro against Boophilus microplus Biarra (larvae); settings: ca. 60 to 100 per well, video evaluation
Experimental: This method is carried out in titre plates having 6 wells with a cross-section of 5 cm each, using a computer-supported video system. Each well of the titre plate is lined with a circular filter paper or another suitable carrier material. The substance of formula I to be tested is dissolved in methanol, acetonitrile or another suitable solvent, with ultrasound treatment and heating being employed for poorly-soluble substances. In an amount of 1 to 100 μg/cm^2, the dissolved test substance is placed in the centre of the filter paper on a quadrant or circular area of ca. 2.4 cm^2 radius. 4 of the 6 wells are filled with different test substances or with the same test substance in different dilutions (e.g. 1, 3.2, 5, 10 and 20 μg/cm^2). The 5th well is treated with DEET (N,N-diethyl-m-toluamide) as standard substance. The 6th well is filled with the pure solvent and serves as a control. 60 to 100 larvae or 25 to 50 nymphs or 10 to 25 adults of the parasite to be tested, e.g. ticks, are added to each filter paper, and the system is covered with a pane of glass and positioned under a video camera. At intervals of 5 seconds, the video camera takes individual pictures of all 6 wells. For a qualitative evaluation, these images are observed in a time-lapse as a continuous film, optically following the movements of the parasites on the filter paper and comparing them with the movements in the control well no. 6 or with the standard in the 5th well. A qualitative observation is thus made as to whether the test parasites move evenly over the whole surface of the filter paper and ignore the test substance, or whether and over what period they avoid the treated zone, and what influence the dilution of the test substance has on the behaviour of the test parasites. In this way, neutral and deterring substances are determined. At the same time, the duration of activity of the test substance is determined and compared with that of the standard. By plotting all the images for each individual well over one another, different areas of density are obtained. This represents the frequency at which the parasites visit certain places. This frequency is evaluated statistically and thus quantitatively by the Willcoxon method in a comparison with the control and with the standard. […] Arena Test In Vitro Against Boophilus microplus Biarra (larvae) The test is carried out as described above, with ca. 60 to 100 larvae being added per well. 10 mg of dissolved test substance is applied to an area of 2.4 cm^2 radius. […] Particularly marked long-term activity is shown for example by using the compounds Nos. 1.001, 2.001, 3.001, 4.001, 5.001, 5.184, 5.185, and 5.186 even up to a dilution of 10 μg/cm^2.

[3] = system: various parasites, e.g. ticks; experiment: Arena test: general method for testing vermin-deterring substances; settings: 1 to 100 μg/cm^2 on filter paper, video evaluation
Experimental: Arena Test: General Method for Testing Vermin-Deterring Substances
This method is carried out in titre plates having 6 wells with a cross-section of 5 cm each, using a computer-supported video system. Each well of the titre plate is lined with a circular filter paper or another suitable carrier material. The substance of formula I to be tested is dissolved in methanol, acetonitrile or another suitable solvent, with ultrasound treatment and heating being employed for poorly-soluble substances. In an amount of 1 to 100 μg/cm^2, the dissolved test substance is placed in the centre of the filter paper on a quadrant or circular area of ca. 2.4 cm^2 radius. 4 of the 6 wells are filled with different test substances or with the same test substance in different dilutions (e.g. 1, 3.2, 5, 10 and 20 μg/cm^2). The 5th well is treated with DEET (N,N-diethyl-m-toluamide) as standard substance. The 6th well is filled with the pure solvent and serves as a control. 60 to 100 larvae or 25 to 50 nymphs or 10 to 25 adults of the parasite to be tested, e.g. ticks, are added to each filter paper, and the system is covered with a pane of glass and positioned under a video camera.
At intervals of 5 seconds, the video camera takes individual pictures of all 6 wells. For a qualitative evaluation, these images are observed in a time-lapse as a continuous film, optically following the movements of the parasites on the filter paper and comparing them with the movements in the control well no. 6 or with the standard in the 5th well. A qualitative observation is thus made as to whether the test parasites move evenly over the whole surface of the filter paper and ignore the test substance, or whether and over what period they avoid the treated zone, and what influence the dilution of the test substance has on the behaviour of the test parasites. In this way, neutral and deterring substances are determined. At the same time, the duration of activity of the test substance is determined and compared with that of the standard. By plotting all the images for each individual well over one another, different areas of density are obtained. This represents the frequency at which the parasites visit certain places. This frequency is evaluated statistically and thus quantitatively by the Willcoxon method in a comparison with the control and with the standard.

[4] = system: Rhipicephalus sanguineus (nymphs); experiment: Arena test in vitro against Rhipicephalus sanguineus (nymphs); settings: ca. 40 to 50, video evaluation
Experimental: This method is carried out in titre plates having 6 wells with a cross-section of 5 cm each, using a computer-supported video system. Each well of the titre plate is lined with a circular filter paper or another suitable carrier material. The substance of formula I to be tested is dissolved in methanol, acetonitrile or another suitable solvent, with ultrasound treatment and heating being employed for poorly-soluble substances. In an amount of 1 to 100 μg/cm^2, the dissolved test substance is placed in the centre of the filter paper on a quadrant or circular area of ca. 2.4 cm^2 radius. 4 of the 6 wells are filled with different test substances or with the same test substance in different dilutions (e.g. 1, 3.2, 5, 10 and 20 μg/cm^2). The 5th well is treated with DEET (N,N-diethyl-m-toluamide) as standard substance. The 6th well is filled with the pure solvent and serves as a control. 60 to 100 larvae or 25 to 50 nymphs or 10 to 25 adults of the parasite to be tested, e.g. ticks, are added to each filter paper, and the system is covered with a pane of glass and positioned under a video camera. At intervals of 5 seconds, the video camera takes individual pictures of all 6 wells. For a qualitative evaluation, these images are observed in a time-lapse as a continuous film, optically following the movements of the parasites on the filter paper and comparing them with the movements in the control well no. 6 or with the standard in the 5th well. A qualitative observation is thus made as to whether the test parasites move evenly over the whole surface of the filter paper and ignore the test substance, or whether and over what period they avoid the treated zone, and what influence the dilution of the test substance has on the behaviour of the test parasites. In this way, neutral and deterring substances are determined. At the same time, the duration of activity of the test substance is determined and compared with that of the standard. By plotting all the images for each individual well over one another, different areas of density are obtained. This represents the frequency at which the parasites visit certain places. This frequency is evaluated statistically and thus quantitatively by the Willcoxon method in a comparison with the control and with the standard. […] Arena Test In Vitro Against Rhipicephalus sanguineus (nymphs) A test is carried out analogously to example B using ca. 40 to 50 nymphs. […] In particular, the compounds are notable for their almost complete deterring action, which lasts considerably longer than that of DEET. Particularly marked long-term activity is shown for example by compounds Nos. 1.001, 2.001, 3.001, 4.001, 5.001, 5.184, 5.185, and 5.186 even up to a dilution of 10 μg/cm^2.

Compound | dilution up to which particularly marked long-term activity is shown [1] [μg/cm^2] | dilution up to which particularly marked long-term activity is shown [2] [μg/cm^2] | vermin-deterring activity in the arena test [3] | dilution up to which particularly marked long-term activity is shown [4] [μg/cm^2]
OCC1CCCCN1Cc1ccccc1 (stereo not drawn) [Compound 1.001] | 3.2 | 10 | excellent activity | 10
OCC1CCCN1Cc1ccccc1 (stereo not drawn) [Compound 2.001] | 3.2 | 10 | excellent activity | 10
OC1CCN(Cc2ccccc2)C1 (stereo not drawn) [Compound 3.001, 1-Benzyl-pyrrolidin-3-ol] | 3.2 | 10 | excellent activity | 10
OC1CCCN(Cc2ccccc2)C1 (stereo not drawn) [Compound 4.001] | 3.2 | 10 | excellent activity | 10
OCCN(Cc1ccccc1)Cc1ccccc1 [Compound 5.001] | 3.2 | 10 | excellent activity | 10
CC(CO)N(Cc1ccccc1)Cc1ccccc1 (stereo not drawn) [Compound 5.184] | 3.2 | 10 | excellent activity | 10
